Reference: ChEMBL document CHEMBL5321293, “Discovery of ERD-3111 as a Potent and Orally Efficacious Estrogen Receptor PROTAC Degrader with Strong Antitumor Activity” (J Med Chem, 2023)

Tests used:
[1] = Volume of distribution at steady state in Sprague-Dawley rat at 1 mg/kg, iv and measured upto 24 hrs by LC-MS/MS analysis; settings: in vivo
[2] = Half life in Sprague-Dawley rat at 3 mg/kg, po and measured upto 24 hrs by LC-MS/MS analysis; settings: in vivo
[3] = AUC in ICR mouse at 3 mg/kg, po and measured upto 24 hrs by LC-MS/MS analysis; assay type: ADME, organism-based; design: dose 3 mg/kg, time < 24 hrs, route po; settings: in vivo
[4] = Oral bioavailability in ICR mouse at 3 mg/kg and measured upto 24 hrs by LC-MS/MS analysis; assay type: ADME, organism-based; settings: in vivo
[5] = Clearance in Beagle dog at 0.5 mg/kg, iv and measured upto 24 hrs by LC-MS/MS analysis; assay type: ADME, organism-based, Canis lupus familiaris; settings: in vivo
[6] = Half life in Beagle dog at 1 mg/kg, po and measured upto 24 hrs by LC-MS/MS analysis; assay type: ADME, organism-based, Canis lupus familiaris; settings: in vivo
[7] = Oral bioavailability in Beagle dog at 1 mg/kg and measured upto 24 hrs by LC-MS/MS analysis; assay type: ADME, organism-based, Canis lupus familiaris; settings: in vivo
[8] = molecular target: T1, Protein cereblon/Estrogen receptor (Homo sapiens, UniProt P03372+Q96SW2); assay: Protac activity at human ERalpha in ER positive human MCF7 cells assessed as reduction in ERalpha protein level at 0.1 to 30 nM by Western blot analysis; assay type: cell-based; settings: dose 0.1-30 nM
[9] = molecular target: T1, Protein cereblon/Estrogen receptor; assay: Protac activity at human ERalpha in human T47D cells assessed as reduction in ERalpha protein level at 0.1 to 100 nM by Western blot analysis; assay type: cell-based; settings: dose 0.1-100 nM
[10] = molecular target: Voltage-gated inwardly rectifying potassium channel KCNH2 (Homo sapiens, UniProt Q12809); assay: Inhibition of human ERG in human HEK293 cells incubated for 5 mins by patch clamp assay; assay type: toxicity, cell-based
[11] = molecular target: T2, Cytochrome P450 3A4 (Homo sapiens, UniProt P08684); assay: Inhibition of CYP3A4 in human liver microsomes using midazolam as substrate preincubated for 5 mins followed by NADPH addition and measured after 10 mins by LC-MS/MS analysis; assay type: ADME, Microsome
[12] = molecular target: T2, Cytochrome P450 3A4; assay: Inhibition of CYP3A4 in human liver microsomes using testosterone as substrate preincubated for 5 mins followed by NADPH addition and measured after 10 mins by LC-MS/MS analysis; assay type: ADME, Microsome
[13] = Downregulation of ERalpha protein expression in tumor of CB17 SCID mouse xenografted with human MCF7 cells harboring wild type ESR1 at 10 mg/kg, po qd for 3 days and measured after 6 hrs last dose by Western blot analysis relative to control; assay type: functional; settings: time 3 day
[14] = Downregulation of ERalpha protein expression in tumor of CB17 SCID mouse xenografted with human MCF7 cells harboring wild type ESR1 at 30 mg/kg, po qd for 3 days and measured after 6 hrs last dose by Western blot analysis relative to control; assay type: functional; settings: time 3 day
[15] = Downregulation of ERalpha protein expression in tumor of CB17 SCID mouse xenografted with human MCF7 cells harboring wild type ESR1 at 30 mg/kg, po qd for 3 days and measured after 24 hrs last dose by Western blot analysis relative to control; assay type: functional; settings: time 3 day
[16] = Drug concentration in plasma of CB17 SCID mouse xenografted with human MCF7 cells harboring wild type ESR1 at 10 mg/kg, po qd for 3 days and measured after 6 hrs last dose by LC-MS/MS analysis; assay type: ADME, organism-based; settings: time 3 day
[17] = Drug concentration in plasma of CB17 SCID mouse xenografted with human MCF7 cells harboring wild type ESR1 at 30 mg/kg, po qd for 3 days and measured after 24 hrs last dose by LC-MS/MS analysis; assay type: ADME, organism-based; settings: time 3 day
[18] = Drug concentration in tumor of CB17 SCID mouse xenografted with human MCF7 cells harboring wild type ESR1 at 10 mg/kg, po qd for 3 days and measured after 6 hrs last dose by LC-MS/MS analysis; assay type: ADME, organism-based, Neoplasm; settings: time 3 day, read-out: Ct
[19] = Drug concentration in plasma of CB17 SCID mouse xenografted with human MCF7 cells harboring wild type ESR1 at 30 mg/kg, po qd for 3 days and measured after 3 hrs last dose by LC-MS/MS analysis; assay type: ADME, organism-based; settings: time 3 day
[20] = Drug concentration in plasma of CB17 SCID mouse xenografted with human MCF7 cells harboring ESR1 Y537S mutant at 30 mg/kg, po qd for 3 days and measured after 6 hrs last dose by LC-MS/MS analysis; assay type: ADME, organism-based; settings: time 3 day
[21] = Drug concentration in tumor of CB17 SCID mouse xenografted with human MCF7 cells harboring ESR1 Y537S mutant at 30 mg/kg, po qd for 3 days and measured after 6 hrs last dose by LC-MS/MS analysis; assay type: ADME, organism-based, Neoplasm; settings: time 3 day, read-out: Ct
[22] = Drug concentration in plasma of CB17 SCID mouse xenografted with human MCF7 cells harboring ESR1 D538G mutant at 10 mg/kg, po qd for 3 days and measured after 6 hrs last dose by LC-MS/MS analysis; assay type: ADME, organism-based; settings: time 3 day
[23] = tested on: MCF7; assay: Antitumor activity against human MCF7 cells harboring wild type ESR1 xenografted in CB17 SCID mouse assessed as tumor growth inhibition at 10 mg/kg, po qd for 5 weeks; assay type: functional; settings: MCF7, 840 h, read-out: TGI
[24] = tested on: MCF7; assay: Antitumor activity against human MCF7 cells harboring wild type ESR1 xenografted in CB17 SCID mouse assessed as tumor growth inhibition at 30 mg/kg, po qd for 5 weeks; assay type: functional; settings: MCF7, 840 h, read-out: TGI
[25] = tested on: MCF7; assay: Antitumor activity against human MCF7 cells harboring ESR1 Y537S mutant xenografted in CB17 SCID mouse assessed as tumor growth inhibition at 10 mg/kg, po qd for 4 weeks; assay type: functional; settings: MCF7, 672 h, read-out: TGI
[26] = tested on: MCF7; assay: Antitumor activity against human MCF7 cells harboring ESR1 Y537S mutant xenografted in CB17 SCID mouse assessed as tumor growth inhibition at 10 mg/kg, po qd for 4 weeks and measured 30 days post last dose; assay type: functional; settings: MCF7, 672 h, read-out: TGI
[27] = tested on: MCF7; assay: Antitumor activity against human MCF7 cells harboring ESR1 Y537S mutant xenografted in CB17 SCID mouse assessed as tumor growth inhibition at 30 mg/kg, po qd for 4 weeks and measured 30 days post last dose; assay type: functional; settings: MCF7, 672 h, read-out: TGI
[28] = Toxicity in CB17 SCID mouse xenografted with human MCF7 cells harboring wild type ESR1 assessed as body weight change at 10 mg/kg,po qd for 5 weeks; assay type: organism-based; settings: in vivo, 840 h
[29] = Toxicity in CB17 SCID mouse xenografted with human MCF7 cells harboring ESR1 Y537S mutant assessed as body weight change at 10 mg/kg,po qd for 4 weeks; assay type: organism-based; settings: in vivo, 672 h
[30] = Toxicity in CB17 SCID mouse xenografted with human MCF7 cells harboring ESR1 Y537S mutant assessed as body weight change at 30 mg/kg,po qd for 4 weeks; assay type: organism-based; settings: in vivo, 672 h
[31] = Toxicity in CB17 SCID mouse xenografted with human MCF7 cells harboring ESR1 D538G mutant assessed as body weight change at 10 mg/kg,po qd for 4 weeks; assay type: organism-based; settings: in vivo, 672 h
[32] = Toxicity in CB17 SCID mouse xenografted with human MCF7 cells harboring ESR1 D538G mutant assessed as body weight change at 30 mg/kg,po qd for 4 weeks; assay type: organism-based; settings: in vivo, 672 h
[33] = in vivo; settings: Sprague-Dawley, rat, po, 3 mg/kg

T1 sequence (P03372 whole entry, looked up): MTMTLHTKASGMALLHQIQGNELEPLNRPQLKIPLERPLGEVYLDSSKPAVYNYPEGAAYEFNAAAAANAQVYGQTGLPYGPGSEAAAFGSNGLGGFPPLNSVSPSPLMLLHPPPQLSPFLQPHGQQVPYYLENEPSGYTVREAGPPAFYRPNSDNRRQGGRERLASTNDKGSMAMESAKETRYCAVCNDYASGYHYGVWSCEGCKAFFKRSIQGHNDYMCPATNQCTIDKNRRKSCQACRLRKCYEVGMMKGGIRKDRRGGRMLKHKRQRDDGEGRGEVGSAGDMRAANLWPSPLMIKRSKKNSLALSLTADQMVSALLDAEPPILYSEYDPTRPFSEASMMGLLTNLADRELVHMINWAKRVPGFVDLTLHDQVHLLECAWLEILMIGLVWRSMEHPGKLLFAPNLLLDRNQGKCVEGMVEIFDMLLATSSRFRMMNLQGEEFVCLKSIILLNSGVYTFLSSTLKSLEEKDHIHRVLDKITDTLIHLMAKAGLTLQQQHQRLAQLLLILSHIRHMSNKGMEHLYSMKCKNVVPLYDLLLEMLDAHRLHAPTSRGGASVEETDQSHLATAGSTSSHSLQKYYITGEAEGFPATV
T1 sequence (Q96SW2 whole entry, looked up): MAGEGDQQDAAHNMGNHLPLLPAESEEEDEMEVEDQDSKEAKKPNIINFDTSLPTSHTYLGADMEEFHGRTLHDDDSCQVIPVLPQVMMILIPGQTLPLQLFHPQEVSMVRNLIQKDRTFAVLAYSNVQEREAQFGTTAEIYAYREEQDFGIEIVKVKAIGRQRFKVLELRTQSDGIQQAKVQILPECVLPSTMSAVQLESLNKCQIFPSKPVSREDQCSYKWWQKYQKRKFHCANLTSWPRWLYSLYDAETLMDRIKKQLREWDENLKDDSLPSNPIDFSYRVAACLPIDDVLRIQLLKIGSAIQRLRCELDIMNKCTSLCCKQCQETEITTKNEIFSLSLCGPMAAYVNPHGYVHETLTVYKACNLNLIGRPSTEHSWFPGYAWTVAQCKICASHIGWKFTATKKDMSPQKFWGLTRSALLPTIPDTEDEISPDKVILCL
T2 sequence (P08684 whole entry): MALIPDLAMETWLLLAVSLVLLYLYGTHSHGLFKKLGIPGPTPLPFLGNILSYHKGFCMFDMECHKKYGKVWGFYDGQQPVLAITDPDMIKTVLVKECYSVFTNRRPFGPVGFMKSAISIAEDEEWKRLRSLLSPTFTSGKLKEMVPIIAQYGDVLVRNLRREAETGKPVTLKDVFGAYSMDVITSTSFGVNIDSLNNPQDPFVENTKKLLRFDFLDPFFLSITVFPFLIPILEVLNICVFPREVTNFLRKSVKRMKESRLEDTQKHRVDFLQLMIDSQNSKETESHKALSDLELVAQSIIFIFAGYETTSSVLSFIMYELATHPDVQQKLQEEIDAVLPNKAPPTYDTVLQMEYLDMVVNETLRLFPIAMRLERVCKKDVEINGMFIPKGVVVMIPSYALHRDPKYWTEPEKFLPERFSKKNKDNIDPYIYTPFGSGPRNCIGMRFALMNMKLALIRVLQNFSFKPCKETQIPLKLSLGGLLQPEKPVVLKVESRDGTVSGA
Sequence of Voltage-gated inwardly rectifying potassium channel KCNH2 (Q12809 whole entry): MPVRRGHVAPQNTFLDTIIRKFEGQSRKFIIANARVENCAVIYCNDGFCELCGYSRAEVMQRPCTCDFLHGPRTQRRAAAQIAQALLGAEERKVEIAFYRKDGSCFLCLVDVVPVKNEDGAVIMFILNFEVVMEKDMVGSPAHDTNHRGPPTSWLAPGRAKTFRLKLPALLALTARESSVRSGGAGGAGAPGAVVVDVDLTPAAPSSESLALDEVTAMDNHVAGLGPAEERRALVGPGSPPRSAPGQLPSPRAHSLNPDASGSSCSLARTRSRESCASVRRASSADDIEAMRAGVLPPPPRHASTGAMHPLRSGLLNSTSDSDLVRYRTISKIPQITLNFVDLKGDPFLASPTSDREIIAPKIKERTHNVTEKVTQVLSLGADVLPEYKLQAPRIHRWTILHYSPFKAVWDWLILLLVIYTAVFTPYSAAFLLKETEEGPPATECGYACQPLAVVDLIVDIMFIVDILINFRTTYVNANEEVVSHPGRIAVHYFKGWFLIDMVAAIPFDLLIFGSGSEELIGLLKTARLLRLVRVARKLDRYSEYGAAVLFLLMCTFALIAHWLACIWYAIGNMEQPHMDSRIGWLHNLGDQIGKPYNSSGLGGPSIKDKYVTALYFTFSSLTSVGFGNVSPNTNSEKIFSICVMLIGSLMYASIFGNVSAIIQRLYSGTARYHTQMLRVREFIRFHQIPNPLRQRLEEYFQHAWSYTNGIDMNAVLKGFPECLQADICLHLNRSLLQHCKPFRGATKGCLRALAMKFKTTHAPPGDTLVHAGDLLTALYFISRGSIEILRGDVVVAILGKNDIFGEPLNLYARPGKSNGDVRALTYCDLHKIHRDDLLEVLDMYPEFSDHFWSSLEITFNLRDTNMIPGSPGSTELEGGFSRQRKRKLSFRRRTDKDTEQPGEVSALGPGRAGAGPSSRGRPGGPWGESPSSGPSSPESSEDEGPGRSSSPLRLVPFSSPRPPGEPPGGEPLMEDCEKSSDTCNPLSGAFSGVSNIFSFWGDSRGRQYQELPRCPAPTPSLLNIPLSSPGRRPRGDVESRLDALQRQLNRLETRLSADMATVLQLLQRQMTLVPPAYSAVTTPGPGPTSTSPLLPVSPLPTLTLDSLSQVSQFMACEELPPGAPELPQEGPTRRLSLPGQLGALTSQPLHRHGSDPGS

- Vd at 24 h [1]: 1.3 L/kg
- half-life at 24 h [2]: 4 h
- AUC at 24 h [3]: 3370 ng·h/mL
- bioavailability [4]: 42%
- clearance [5]: 11 mL/min/kg
- half-life [6]: 7.9 h
- bioavailability [7]: 66%
- Activity [8]: Dose-Dependent Effect
- Activity [9]: Dose-Dependent Effect
- IC50 [11]: > 10 µM
- IC50 [12]: > 10 µM
- concentration at 72 h [16]: 433 ng/mL
- concentration at 72 h [17]: 80 ng/mL
- concentration at 72 h [18]: 385 ng/mL
- concentration at 72 h [19]: 1980 ng/mL
- concentration at 72 h [20]: 2830 ng/mL
- concentration at 72 h [21]: 3740 ng/mL
- concentration at 72 h [22]: 609 ng/mL
- Cmax at 24 h [33]: 141 ng/mL
SMILES: C[C@@H]1Cc2c(ccc3[nH]ncc23)[C@@H](c2c(F)cc(N3CCC4(CCN(C(=O)CN5Cc6cc7c(cc6C5)C(=O)N(C5CCC(=O)NC5=O)C7=O)CC4)CC3)cc2F)N1CC(F)F (stereo partly drawn)
- IC50 [10]: > 30 µM
- Activity [13]: 66%
- Activity [14]: 66%
- Activity [15]: 73%
- inhibition in vivo at 10 mg/kg [23]: 24%
- inhibition in vivo at 30 mg/kg [24]: 42%
- inhibition in vivo at 10 mg/kg [25]: 72%
- inhibition in vivo at 10 mg/kg [26]: 99%
- inhibition in vivo at 30 mg/kg [27]: 101%
- Activity [28]: Non-Toxic
- Activity [29]: Non-Toxic
- Activity [30]: Non-Toxic
- Activity [31]: Non-Toxic
- Activity [32]: Non-Toxic
